For one test, the system named is MC38 colon tumor. The experiment in a line: MC38 colon tumor in the flank with AIR. Type of test: in vivo, mice. The text has this: FIG. 18. […] I) Schematic diagram of BCN057 treatment in C57B16 mice having MC38 colon tumor in the flank. Mice were exposed to AIR (15Gy) and then treated with BCN057 at 24 hrs post exposure. Ii) Representative image of C57B16 mice having MC38 colon tumor in the flank. Note reduction in tumor size in irradiated or un-irradiated tumor treated with BCN057 at day 20 post AIR. Mice exposed to AIR without BCN057 treatment are not part of this image as they died within day 15 post AIR.
Subcutaneous tumors were developed by injecting MC38 colon cancer cell in the flank. Mice with palpable, subcutaneous tumor were treated with AIR (16Gy) followed by eight doses of BCN057. AIR reduced the tumor growth but invariably produced 100% mortality of animals with a median survival time of 14+2 days.
Mice were injected subcutaneously with 1×105 MC38 (colon carcinoma cell line) cells on the flank, respectively. About 10 days later, the tumor became palpable (3-5 mm in diameter), whereupon abdominal irradiation 16 Gy was delivered. Mice were divided into 4 groups (n=10/group) receiving no treatment, AIR, BCN057 and BCN057 plus AIR. Animals received BCN057 eight times starting 24 hrs after AIR. Tumor measurements were performed thrice weekly using Vernier calipers along with simultaneous physical assessment of signs of systemic toxicity (malaise and diarrhea).

Test [1] has as its system nuclear β-catenin in crypt epithelial cells. As to the kind of experiment: β-Catenin immunohistochemistry of mouse jejunum. Type of test: in vivo, mice. To be noted: BCN057 at 24 hrs post AIR vs irradiated untreated animals. On the procedure: The effect of BCN057 was analyzed in crypt epithelial β-catenin activation. […] Nuclear β-catenin positive cells were primarily observed in crypt bottom which is also location for ISCs indicating activation of WNT-β-catenin signaling in ISCs.
β-Catenin immunohistochemistry was performed in paraffin-embedded sections of mouse jejunum (56). Before immunostaining antigen retrieval was performed by heating slides in […] at 100° C. for 20 min in a microwave oven at 500 W using antigen retrieval solution (10 mM Tris and 1 mM EDTA, pH 9.0). Non-specific antibody binding was blocked for 20 min. by incubation with 0.05% w/v BSA in PBS. Tissue was stained using the anti-β-catenin antibody (1:100 dilution; BD Transduction Laboratories, Franklin Lakes, N.J.; #610154) at room temperature for 2 hr followed by staining with horseradish peroxidase-conjugated Anti-Mouse Antibody (Dako, Denmark) at room temperature for 1 hr. Peroxidase activity was detected by adding DAB substrate. Nucleus was counter-stained with haematoxylin (blue). β-Catenin-positive nucleus (stained dark brown) was calculated from 15 crypts per field, 5 fields per mice.

Molecules are shown by their SMILES. “Also recorded” adds a separate entry of the source.

With `COc1ccc2cc(-c3nc4ccc(C)cn4c3NCc3ccco3)c(=O)[nH]c2c1` [BCN057, 3-(3((furan-2-ylmethyl)ammo)-6-methylimidazo[1,2-a]pyridine-2-yl)-6-methoxyquinolin-2(1H)-one], the “mice surviving beyond 30 days” value in the test on MC38 colon tumor (AIR (16Gy) followed by eight doses of BCN057, AIR alone 100% mortality, n=10) is on record as 75%. The tumor growth entry is listed as “significant tumor growth retardation; also recorded: significant reduction of tumor growth” in the test on MC38 colon tumor (AIR + BCN057 vs un-irradiated untreated control) and “reduces the tumor growth” in the test on MC38 colon tumor (BCN057 in un-irradiated mice vs un-irradiated untreated control). The survival time entry in the test with MC38 colon tumor (BCN057 post AIR vs AIR alone) is on record as “significant improvement in survival time”. In addition, the “nuclear β-catenin positive cells” value in test [1] is “significant increase; also recorded: more nuclear β-catenin staining”.

The record behind these values is US11364231B2, “Methods of treating radiation induced gastrointestinal syndrome (RIGS) and related disease states using YEL002/BCN057” (priority 2017, dated 2022).
